In brackets after ≈: the same amount, converted by molar mass. Where two headings read alike, the source gives them in different places.
Columns and labels:
[1] = system: C. tropicalis 250/03 (candidosis); assay: Standard MIC testing in RPMI medium (Example 3); format: cell-based; details: Candida tropicalis, 48 h, read-out: Minimum Inhibitory Concentration (MIC)
Experimental: (§4) The Minimum Inhibitory Concentration assay used in this Example was based on Jorgensen et al. (Manual of Clinical Microbiology, 7th ed. Washington, D.C: American Society for Microbiology, 1999; 1526-43). Following retrieval from −80° C. storage, fungal colonies were grown on blood agar with 5% sheep blood and were used to inoculate tryptone soya broth (TSB) for overnight growth. […] Fungal cultures at 0.5 McFarland standard were diluted ten-fold in RPMI medium and 5 μl added to the media containing wells of the microtiter plates. Plates were wrapped in parafilm and incubated at 34° C. for 48 hours. MIC values were determined as the lowest concentration at which there was no visible growth.

[2] = system: C. parapsillosis ATCC 22019T; assay: Standard MIC testing in RPMI medium (Example 3); format: cell-based, Candida parapsilosis; details: Lodderomyces parapsilosis, ATCC2019, 48 h, C. Parapsillosis ATCC 2019^T, read-out: Minimum Inhibitory Concentration (MIC)
Experimental: (§5) Following retrieval from −80° C. storage, fungal colonies were grown on blood agar with 5% sheep blood and were used to inoculate tryptone soya broth (TSB) for overnight growth. […] Fungal cultures at 0.5 McFarland standard were diluted ten-fold in RPMI medium and 5 μl added to the media containing wells of the microtiter plates. Plates were wrapped in parafilm and incubated at 34° C. for 48 hours. MIC values were determined as the lowest concentration at which there was no visible growth.

[3] = system: C. tropicalis 519468 (urinary); assay: Standard MIC testing in RPMI medium (Example 3); format: cell-based; details: Candida tropicalis, 48 h, read-out: Minimum Inhibitory Concentration (MIC)
Experimental: as §4

[4] = system: C. tropicalis 12 (vaginal); assay: Standard MIC testing in RPMI medium (Example 3); format: cell-based; details: Candida tropicalis, 48 h, read-out: Minimum Inhibitory Concentration (MIC)
Experimental: as §5

[5] = system: C. lusitaniae 994/01(2) (candidosis); assay: Standard MIC testing in RPMI medium (Example 3); format: cell-based, Candida lusitaniae; details: 48 h
Experimental: as §5

[6] = system: C. krusei 141/03 (candidosis); assay: Standard MIC testing in RPMI medium (Example 3); format: cell-based, Candida krusei; details: Pichia kudriavzevii, 48 h, read-out: Minimum Inhibitory Concentration (MIC)
Experimental: as §5

Candida albicans = assay: Robotic MIC assay with asthma/COPD medicaments (Example 5); format: cell-based; details: Mueller-Hinton broth; for MIC values: 24 hours
Experimental: (§1) A robotic MIC Assay was performed as follows. OligoG CF-5/20 were dissolved in medium (Mueller-Hinton broth or M19 broth depending on experiment) to 1.25 times of the desired assay concentrations (2, 6 and 10%). The antifungal agents under test were dissolved in medium without OligoG CF-5/20 and in medium with OligoG CF-5/20 at a concentration of 1.25 times the highest desired assay concentrations. For experiments where the effect of adding different concentrations of Na^+ was investigated, NaCl was dissolved in medium to the desired concentrations (10, 30 and 50 mM).
(§2) Two-fold serial dilutions of antifungal agents were made in medium with different concentrations of OligoG CF-5/20, and the solutions were placed in four parallel wells in Nunc 384-well micro plates (30 μl per well in Nunc 242757 microplates). A group of 8 wells with no addition of antifungal agents for each OligoG CF-5/20 concentration was included on each microplate as growth reference. To each well in the 384-well assay plates was added 7.5 μl of medium inoculated with a frozen stock culture of Candida albicans (strain CCUG 39343).
(§3) The micro plates were placed in plastic bags and incubated without shaking at 34° C. The optical density at 600 nm in the microwells was measured after approximately 13, 18, 24 and 34 hours of incubation, and the relative growth yield in each well was calculated based on the growth in the reference groups.
The robotic assay described in Example 1 was employed in this Example. […] The concentration utilized for the different components were based on information from Manocha et al. (2006).
In this assay only Mueller-Hinton broth was used since this is the medium specified for standardized MIC assays (Jorgensen et al., 1999).

[7] = system: Candida albicans, CCUG 39343; assay: Robotic MIC assay (Example 1); format: cell-based; details: for Minimum Inhibitory Concentration (MIC): 24 hours; for reduction in MIC values: comparing 0 and 10% G-block
Experimental: as §1, §2
The frozen stock culture was prepared by growing the Candida strain at 34° C. for 48 h on YM-agar. 1-3 colonies from the plates were grown in 6 ml YM-broth at 34° C. for 14 h before freezing in 6% glycerol at −80° C. Each batch of frozen stock culture was then characterized in separate growth experiments using Mueller-Hinton or M19 broth to determine the minimum amount of inoculum giving satisfactory growth after 48 h under the conditions relevant for the MIC assay. This inoculation procedure is used in order to reduce day to day variation in bioassays.
as §3

## OC(Cn1cncn1)(Cn1cncn1)c1ccc(F)cc1F [Fluconazole, fluconazole]
[1]; 0% OligoG
  MIC: 4 µg/mL (≈ 13.1 µM)
[1]; 2% OligoG
  MIC: 4 µg/mL (≈ 13.1 µM)
[1]; 6% OligoG
  MIC: 4 µg/mL (≈ 13.1 µM)
[1]; 10% OligoG
  MIC: 2 µg/mL (≈ 6.53 µM)
[2]; 0% OligoG
  MIC: 2 µg/mL (≈ 6.53 µM)
[2]; 2% OligoG
  MIC: 2 µg/mL (≈ 6.53 µM)
[2]; 6% OligoG
  MIC: 2 µg/mL (≈ 6.53 µM)
[2]; 10% OligoG
  MIC: 1 µg/mL (≈ 3.27 µM)
[3]; 6% OligoG
  MIC: 2 µg/mL (≈ 6.53 µM)
[3]; 10% OligoG
  MIC: 1 µg/mL (≈ 3.27 µM)
[4]; 0% OligoG
  MIC: 128 µg/mL (≈ 418 µM)
[4]; 2% OligoG
  MIC: 128 µg/mL (≈ 418 µM)
[4]; 6% OligoG
  MIC: 4 µg/mL (≈ 13.1 µM)
[4]; 10% OligoG
  MIC: 1 µg/mL (≈ 3.27 µM)
[5]; 0% OligoG
  Minimum Inhibitory Concentration (MIC): 2 µg/mL
[5]; 6% OligoG
  Minimum Inhibitory Concentration (MIC): 2 µg/mL
[5]; 10% OligoG
  Minimum Inhibitory Concentration (MIC): 2 µg/mL
[5]; Clavispora lusitaniae, 2% OligoG, read-out: Minimum Inhibitory Concentration (MIC)
  MIC: 2 µg/mL (≈ 6.53 µM)
[6]; 0% OligoG
  MIC: 128 µg/mL (≈ 418 µM)
[6]; 2% OligoG
  MIC: 64 µg/mL (≈ 209 µM)
[6]; 6% OligoG
  MIC: 64 µg/mL (≈ 209 µM)
[6]; 10% OligoG
  MIC: 32 µg/mL (≈ 104 µM)

## C[C@@H]1[C@H](O)[C@@H](C)/C=C/C=C/CC/C=C/C=C/C=C/C=C/C(O[C@H]2O[C@H](C)[C@@H](O)[C@H](N)[C@@H]2O)CC2O[C@](O)(CC(O)C(O)CCC(O)CC(O)CC(O)CC(=O)O[C@H]1C)CC(O)C2C(=O)O (stereo partly drawn) [Nystatin, nystatin]
Candida albicans; addition of 10% OligoG CF-5/20 compared to without OligoG CF-5/20
  reduction in MIC values: 4 ×
Candida albicans; no medicament added, G-block 0%
  MIC values: 2 µg/mL (≈ 2.16 µM)
Candida albicans; no medicament added, G-block 2%
  MIC values: 2 µg/mL (≈ 2.16 µM)
Candida albicans; no medicament added, G-block 6%
  MIC values: 1 µg/mL (≈ 1.08 µM)
Candida albicans; no medicament added, G-block 10%
  MIC values: 0.5 µg/mL (≈ 0.54 µM)
Candida albicans; with Budesonide 0.01 mM, G-block 0%
  MIC values: 4 µg/mL (≈ 4.32 µM)
Candida albicans; with Budesonide 0.01 mM, G-block 2%
  MIC values: 4 µg/mL (≈ 4.32 µM)
Candida albicans; with Budesonide 0.01 mM, G-block 6%
  MIC values: 2 µg/mL (≈ 2.16 µM)
Candida albicans; with Budesonide 0.01 mM, G-block 10%
  MIC values: 1 µg/mL (≈ 1.08 µM)
Candida albicans; with Formoterol 0.5 mM (2% DMSO), G-block 0%
  MIC values: 2 µg/mL (≈ 2.16 µM)
Candida albicans; with Formoterol 0.5 mM (2% DMSO), G-block 2%
  MIC values: 2 µg/mL (≈ 2.16 µM)
Candida albicans; with Formoterol 0.5 mM (2% DMSO), G-block 6%
  MIC values: 1 µg/mL (≈ 1.08 µM)
Candida albicans; with Formoterol 0.5 mM (2% DMSO), G-block 10%
  MIC values: 0.5 µg/mL (≈ 0.54 µM)
Candida albicans; with Ipratropium bromide 0.01 mM, G-block 0%
  MIC values: 4 µg/mL (≈ 4.32 µM)
Candida albicans; with Ipratropium bromide 0.01 mM, G-block 2%
  MIC values: 2 µg/mL (≈ 2.16 µM)
Candida albicans; with Ipratropium bromide 0.01 mM, G-block 6%
  MIC values: 1 µg/mL (≈ 1.08 µM)
Candida albicans; with Ipratropium bromide 0.01 mM, G-block 10%
  MIC values: 0.25 µg/mL (≈ 0.27 µM)
Candida albicans; with Ipratropium bromide 1 mM, G-block 0%
  MIC values: 4 µg/mL (≈ 4.32 µM)
Candida albicans; with Ipratropium bromide 1 mM, G-block 2%
  MIC values: 2 µg/mL (≈ 2.16 µM)
Candida albicans; with Ipratropium bromide 1 mM, G-block 6%
  MIC values: 0.5 µg/mL (≈ 0.54 µM)
Candida albicans; with Ipratropium bromide 1 mM, G-block 10%
  MIC values: 0.25 µg/mL (≈ 0.27 µM)
Candida albicans; with Salbutamol 0.01 mM, G-block 0%
  MIC values: 4 µg/mL (≈ 4.32 µM)
Candida albicans; with Salbutamol 0.01 mM, G-block 2%
  MIC values: 2 µg/mL (≈ 2.16 µM)
Candida albicans; with Salbutamol 0.01 mM, G-block 6%
  MIC values: 1 µg/mL (≈ 1.08 µM)
Candida albicans; with Salbutamol 0.01 mM, G-block 10%
  MIC values: 0.25 µg/mL (≈ 0.27 µM)
Candida albicans; with Salbutamol 1 mM, G-block 0%
  MIC values: 2 µg/mL (≈ 2.16 µM)
Candida albicans; with Salbutamol 1 mM, G-block 2%
  MIC values: 2 µg/mL (≈ 2.16 µM)
Candida albicans; with Salbutamol 1 mM, G-block 6%
  MIC values: 1 µg/mL (≈ 1.08 µM)
Candida albicans; with Salbutamol 1 mM, G-block 10%
  MIC values: 0.25 µg/mL (≈ 0.27 µM)
[7]; M19, NaCl 0 mM
  Minimum Inhibitory Concentration (MIC): 6.4 µg/mL
[7]; M19, NaCl 30 mM
  Minimum Inhibitory Concentration (MIC): 3.2 µg/mL
[7]; M19, NaCl 50 mM
  Minimum Inhibitory Concentration (MIC): 1.6 µg/mL
[7]; M19, OligoG CF 5/20 0%
  Minimum Inhibitory Concentration (MIC): 6.4 µg/mL
[7]; M19, OligoG CF 5/20 2%
  Minimum Inhibitory Concentration (MIC): 1.6 µg/mL
[7]; M19, OligoG CF 5/20 6%
  Minimum Inhibitory Concentration (MIC): 0.8 µg/mL
[7]; M19, OligoG CF 5/20 10%
  Minimum Inhibitory Concentration (MIC): 0.4 µg/mL
[7]; M19
  reduction in MIC values: 16 ×
[7]; Mueller-Hinton, NaCl 0 mM
  Minimum Inhibitory Concentration (MIC): 6.4 µg/mL
[7]; Mueller-Hinton, NaCl 10 mM
  Minimum Inhibitory Concentration (MIC): 6.4 µg/mL
[7]; Mueller-Hinton, NaCl 30 mM
  Minimum Inhibitory Concentration (MIC): 6.4 µg/mL
[7]; Mueller-Hinton, NaCl 50 mM
  Minimum Inhibitory Concentration (MIC): 6.4 µg/mL
[7]; Mueller-Hinton, OligoG CF 5/20 0%
  Minimum Inhibitory Concentration (MIC): 3.2 µg/mL
[7]; Mueller-Hinton, OligoG CF 5/20 2%
  Minimum Inhibitory Concentration (MIC): 3.2 µg/mL
[7]; Mueller-Hinton, OligoG CF 5/20 6%
  Minimum Inhibitory Concentration (MIC): 0.8 µg/mL
[7]; Mueller-Hinton, OligoG CF 5/20 10%
  Minimum Inhibitory Concentration (MIC): 0.4 µg/mL
[7]; Mueller-Hinton
  reduction in MIC values: 8 ×
[7]; both media tested (M19, Mueller-Hinton)
  effect of addition of OligoG CF-5/20 on MIC values: reduction in MIC values
